Test results as given in paper PMC8698454, “Anti-Colonization Effect of Au Surfaces with Self-Assembled Molecular Monolayers Functionalized with Antimicrobial Peptides on S. epidermidis” (Antibiotics, 2021).
Like-named read-outs stand apart in the source and are kept apart here.

How the values were obtained:
[1] = system: Gram-negative bacteria; assay type: cell-based, E. coli and P. aeruginosa; conditions: text summary over E. coli ATCC 25922 and P. aeruginosa ATCC 27853
Protocol: (§1) The minimal inhibitory concentration (MIC) of peptides 1a, 1b, 2a, and 2b were determined by broth microdilution according to the Clinical Laboratory Standard Institute (CLSI) method […]-A9. The MICs of the peptides 1c, 1d, 2c, and 2d were determined by broth dilution according to the European Committee for Antimicrobial Susceptibility Testing (EUCAST). Final concentrations of 0.5-256 μg/mL were tested against a panel of reference bacteria-S. aureus (ATCC 9144), S. epidermidis (1457), E. coli (ATCC 25922), and P. aeruginosa (ATCC 27853). Each strain was tested in biological triplicate. The MIC values were defined as the lowest concentration of the peptides resulting in no visual growth.

[2] = system: Gram-positive bacteria; assay type: cell-based, S. aureus and S. epidermidis; conditions: text summary over S. aureus ATCC 9144 and S. epidermidis 1457
Protocol: as §1

[3] = system: Staphylococcus aureus ATCC 9144; assay type: cell-based; conditions: for Antimicrobial Activity (MIC) S. aureus: ATCC 9144, broth microdilution CLSI M07-A9 (1a,1b,2a,2b) or broth dilution EUCAST (1c,1d,2c,2d), 0.5-256 µg/mL tested, biological triplicate, lowest concentration with no visual growth; for MIC S. aureus ATCC 9144: Table S3
Protocol: as §1

[4] = system: Staphylococcus epidermidis 1457; assay type: cell-based; conditions: for MIC S. epidermidis 1457: Table S3; for Antimicrobial Activity (MIC) S. epidermidis: strain 1457, broth microdilution CLSI M07-A9 (1a,1b,2a,2b) or broth dilution EUCAST (1c,1d,2c,2d), 0.5-256 µg/mL tested, biological triplicate, no visual growth
Protocol: as §1

[5] = system: Escherichia coli ATCC 25922; assay type: cell-based; conditions: for Antimicrobial Activity (MIC) E. coli: ATCC 25922, broth microdilution CLSI M07-A9 (1a,1b,2a,2b) or broth dilution EUCAST (1c,1d,2c,2d), 0.5-256 µg/mL tested, biological triplicate, no visual growth; for MIC E. coli ATCC 25922: Table S3
Protocol: as §1

[6] = system: Pseudomonas aeruginosa ATCC 27853; assay type: cell-based; conditions: for Antimicrobial Activity (MIC) P. aeruginosa: ATCC 27853, broth microdilution CLSI M07-A9 (1a,1b,2a,2b) or broth dilution EUCAST (1c,1d,2c,2d), 0.5-256 µg/mL tested, biological triplicate, no visual growth; for MIC P. aeruginosa ATCC 27853: Table S3
Protocol: as §1

[7] = technical replicate 1, biological replicate BR1
[8] = technical replicate 1, biological replicate BR2
[9] = technical replicate 1, biological replicate BR3
[10] = technical replicate 2, biological replicate BR1
[11] = technical replicate 2, biological replicate BR2
[12] = technical replicate 2, biological replicate BR3
[13] = technical replicate 3, biological replicate BR1
[14] = technical replicate 3, biological replicate BR2
[15] = technical replicate 3, biological replicate BR3

N3-PEG200-RBBRF [2a, azidopeptide N3-PEG200-RBBRF, B = biphenylalanine, amidated C-terminus]
MIC against Gram-negative bacteria [1]: 64 µg/mL | MIC against Gram-positive bacteria [2]: 8 µg/mL | Antimicrobial Activity (MIC) S. aureus [3]: 8 µg/mL | MIC S. aureus ATCC 9144 [3, 7]: 8 µg/mL | MIC S. aureus ATCC 9144 [3, 8]: 8 µg/mL | MIC S. aureus ATCC 9144 [3, 9]: 8 µg/mL | MIC S. aureus ATCC 9144 [3, 10]: 8 µg/mL | MIC S. aureus ATCC 9144 [3, 11]: 8 µg/mL | MIC S. aureus ATCC 9144 [3, 12]: 8 µg/mL | MIC S. aureus ATCC 9144 [3, 13]: 8 µg/mL | MIC S. aureus ATCC 9144 [3, 14]: 8 µg/mL | MIC S. aureus ATCC 9144 [3, 15]: 8 µg/mL | MIC S. epidermidis 1457 [4, 7]: 4 µg/mL | MIC S. epidermidis 1457 [4, 8]: 8 µg/mL | MIC S. epidermidis 1457 [4, 9]: 8 µg/mL | MIC S. epidermidis 1457 [4, 10]: 4 µg/mL | MIC S. epidermidis 1457 [4, 11]: 8 µg/mL | MIC S. epidermidis 1457 [4, 12]: 8 µg/mL | MIC S. epidermidis 1457 [4, 13]: 4 µg/mL | MIC S. epidermidis 1457 [4, 14]: 8 µg/mL | MIC S. epidermidis 1457 [4, 15]: 8 µg/mL | Antimicrobial Activity (MIC) S. epidermidis [4]: 8 µg/mL | Antimicrobial Activity (MIC) E. coli [5]: 64 µg/mL | MIC E. coli ATCC 25922 [5, 7]: 64 µg/mL | MIC E. coli ATCC 25922 [5, 8]: 64 µg/mL | MIC E. coli ATCC 25922 [5, 9]: 64 µg/mL | MIC E. coli ATCC 25922 [5, 10]: 64 µg/mL | MIC E. coli ATCC 25922 [5, 11]: 64 µg/mL | MIC E. coli ATCC 25922 [5, 12]: 64 µg/mL | MIC E. coli ATCC 25922 [5, 13]: 64 µg/mL | MIC E. coli ATCC 25922 [5, 14]: 64 µg/mL | MIC E. coli ATCC 25922 [5, 15]: 64 µg/mL | Antimicrobial Activity (MIC) P. aeruginosa [6]: 64 µg/mL | MIC P. aeruginosa ATCC 27853 [6, 7]: 64 µg/mL | MIC P. aeruginosa ATCC 27853 [6, 8]: 64 µg/mL | MIC P. aeruginosa ATCC 27853 [6, 9]: 64 µg/mL | MIC P. aeruginosa ATCC 27853 [6, 10]: 64 µg/mL | MIC P. aeruginosa ATCC 27853 [6, 11]: 64 µg/mL | MIC P. aeruginosa ATCC 27853 [6, 12]: 64 µg/mL | MIC P. aeruginosa ATCC 27853 [6, 13]: 64 µg/mL | MIC P. aeruginosa ATCC 27853 [6, 14]: 64 µg/mL | MIC P. aeruginosa ATCC 27853 [6, 15]: 64 µg/mL

N3-PEG400-RWWRF [1b, azidopeptide N3-PEG400-RWWRF, PEG400-linked, amidated C-terminus]
Antimicrobial Activity (MIC) S. aureus [3]: 128 µg/mL | MIC S. aureus ATCC 9144 [3, 7]: 128 µg/mL | MIC S. aureus ATCC 9144 [3, 8]: 128 µg/mL | MIC S. aureus ATCC 9144 [3, 9]: 128 µg/mL | MIC S. aureus ATCC 9144 [3, 10]: 128 µg/mL | MIC S. aureus ATCC 9144 [3, 11]: 128 µg/mL | MIC S. aureus ATCC 9144 [3, 12]: 128 µg/mL | MIC S. aureus ATCC 9144 [3, 13]: 128 µg/mL | MIC S. aureus ATCC 9144 [3, 14]: 128 µg/mL | MIC S. aureus ATCC 9144 [3, 15]: 128 µg/mL | MIC S. epidermidis 1457 [4, 7]: 128 µg/mL | MIC S. epidermidis 1457 [4, 8]: 128 µg/mL | MIC S. epidermidis 1457 [4, 9]: 64 µg/mL | MIC S. epidermidis 1457 [4, 10]: 128 µg/mL | MIC S. epidermidis 1457 [4, 11]: 128 µg/mL | MIC S. epidermidis 1457 [4, 12]: 128 µg/mL | MIC S. epidermidis 1457 [4, 13]: 128 µg/mL | MIC S. epidermidis 1457 [4, 14]: 128 µg/mL | MIC S. epidermidis 1457 [4, 15]: 64 µg/mL | Antimicrobial Activity (MIC) S. epidermidis [4]: 128 µg/mL | Antimicrobial Activity (MIC) E. coli [5]: >256 µg/mL | MIC E. coli ATCC 25922 [5, 7]: > 256 µg/mL | MIC E. coli ATCC 25922 [5, 8]: > 256 µg/mL | MIC E. coli ATCC 25922 [5, 9]: > 256 µg/mL | MIC E. coli ATCC 25922 [5, 10]: > 256 µg/mL | MIC E. coli ATCC 25922 [5, 11]: > 256 µg/mL | MIC E. coli ATCC 25922 [5, 12]: > 256 µg/mL | MIC E. coli ATCC 25922 [5, 13]: > 256 µg/mL | MIC E. coli ATCC 25922 [5, 14]: > 256 µg/mL | MIC E. coli ATCC 25922 [5, 15]: > 256 µg/mL | Antimicrobial Activity (MIC) P. aeruginosa [6]: >256 µg/mL | MIC P. aeruginosa ATCC 27853 [6, 7]: > 256 µg/mL | MIC P. aeruginosa ATCC 27853 [6, 8]: > 256 µg/mL | MIC P. aeruginosa ATCC 27853 [6, 9]: > 256 µg/mL | MIC P. aeruginosa ATCC 27853 [6, 10]: > 256 µg/mL | MIC P. aeruginosa ATCC 27853 [6, 11]: > 256 µg/mL | MIC P. aeruginosa ATCC 27853 [6, 12]: > 256 µg/mL | MIC P. aeruginosa ATCC 27853 [6, 13]: > 256 µg/mL | MIC P. aeruginosa ATCC 27853 [6, 14]: > 256 µg/mL | MIC P. aeruginosa ATCC 27853 [6, 15]: > 256 µg/mL
